Tests used:
Test in all cases: Western blot of NALM6 cells
Format in all cases: cell-based, human
Conditions in all cases: NALM6, 1μM or 3μM, 24 hours
[1] = system: phosphorylated AKT (Ser473)
Procedure: (§1) Figure 6 GZD824 inhibits PI3K/AKT signaling in pre-B ALL cells A. […] Bars represent the mean percentages of AnnexinV+ cells in each group. B. Primary pre-B ALL cells from spleen of P#1 xenograft mouse treated with DMSO, GZD824 (1μM), IGF-1 (10ng/ML), or both. Bars represent the mean percentages of AnnexinV+ cells in each group. C. Western blot analysis of NALM6 cells. Cells were treated with DMSO, GZD824 (1μM), or GZD824 (3μM) for 24 hours. Lysates were analyzed with antibodies against IRS1, phosphate AKT, and AKT. D. Western blot analysis of primary pre-B ALL cells. Primary cells treated with GZD824 (1μM), IGF-1 (10ng/ML), or both for 24 hours. Lysates were analyzed with antibodies against Irs1, phosphate AKT, and AKT. For Western blot analysis, 30 μg of total protein extracts prepared from NALM6 or primary pre-B ALL cells from SP of PDX mice were separated on SDS-PAGE and transferred to a PVDF membrane (Bio-Rad, Hercules, CA, USA). […]

[2] = system: IRS1
Procedure: as §1

[3] = system: phospho-STAT3
Procedure: (§2) Figure 5 GZD824 inhibits the SRC kinase in pre-B ALL cells A-C. Western blot analysis of […]-treated NALM6 cells. Cells were treated with DMSO, GZD824 (1μM), or GZD824 (3μM) for 24 hours. Lysates were analyzed with antibodies to (A) phospho-SRC and SRC; (B) phospho-STAT3 and STAT3; and (C) phospho-Rb, Rb, and C-Myc. D. qRT-PCR products of BCL-XL, CCND1, CDK4, and CCK[…] mRNA were normalized to GAPDH and presented as fold increase or decrease compared to control, 24 hours after treatment with 3 μM GZD824. E. NALM6 cells were treated with GZD824, SRC inhibitor (KX2-391), STAT3 inhibitor (HO-3867), or DMSO for 24 hours. Statistical analysis of Annexin V-positive cells in 3μM of drug treated NALM6 cells. All data from independent experiments are presented as mean ± SEM. Significance values: ^*P<0.05; ^**P<0.01; ^***P<0.001. For Western blot analysis, 30 μg of total protein extracts prepared from NALM6 or primary pre-B ALL cells from SP of PDX mice were separated on SDS-PAGE and transferred to a PVDF membrane (Bio-Rad, Hercules, CA, USA). The following commercially available antibodies and dilutions were used for Western blotting: human anti-STAT3 (ab119352, Abcam, UK), human anti-phospho-STAT3 (Y705) (ab76315, Abcam, UK), human anti-SRC (ab32102, Abcam, UK), human anti-phospho-SRC ([…]) (ab185617, Abcam, UK), human anti-RB (9313, Cell Signaling Technology, MA, USA), human anti-phospho-RB (Ser807/811) (8516, Cell Signaling Technology, MA, USA), human anti-C-myc (13987, Cell Signaling Technology, MA, USA), anti-AKT (pan) ([…], Cell Signaling Technology, MA, USA), anti-phospho-AKT (Ser473) ([…], Cell Signaling Technology, MA, USA), anti-IRS-1 ([…], Cell Signaling Technology, MA, USA), and human anti-β-actin (4970, Cell Signaling Technology, MA, USA). Western blot analysis was performed with cell lines or primary pre-B ALL cells from SP following GZD824 treatment, and signal intensities were normalized to β-actin signals.

[4] = system: phospho-Rb
Procedure: as §2

[5] = system: C-Myc
Procedure: as §2

[6] = system: phospho-SRC
Procedure: as §2

In the case of Cc1ccc(C(=O)Nc2ccc(CN3CCN(C)CC3)c(C(F)(F)F)c2)cc1C#Cc1cnc2[nH]ncc2c1 [GZD824], the “levels of phosphorylated AKT (Ser473)” value [1] was “reduced”, the “levels of IRS1 protein” value [2] was “reduced” and the “phosphorylated STAT3” value [3] was “reduced”. For the same molecule, the Rb phosphorylation [4] was “suppressed”, the c-Myc oncogene expression [5] was “downregulated” and the “phosphorylated SRC” value [6] was “reduced”.
